According to patent US12570536B2, “Ammonia synthesis methods and systems” (President and Fellows of Harvard College, priority 2016, dated 2026):

Columns and labels:
nitrogenase = settings: competitive inhibition of nitrogenase; cited from earlier work
X. autotrophicus = assay: Extracellular NH3 production by the CoPi|Co-P|X. autotrophicus hybrid device after addition of a GS inhibitor; type: cell-based, Xanthobacter autotrophicus
Source text: A reactor used in the experiments included a biocompatible water splitting catalyst system including a cobalt-phosphorous (Co—P) alloy cathode for the hydrogen evolution reaction (HER) and a cobalt phosphate (CoPi) anode for the oxygen evolution reaction (OER). This system enabled the use of a low driving voltage (Eappl) while producing the desired hydrogen for use in producing ammonia. Specifically, NH3 synthesis from N2 and H2O was accomplished using the water splitting system and driving the N2 reduction reaction within H2-oxidizing, autotrophic microorganisms. In this case, Xanthobacter autotrophicus (X. autotrophicus) was used. X. autotrophicus is a gram-negative bacterium that belongs to a small group of diazotrophs, which at micro-aerobic condition (less than about 5% O2) can use H2 as their sole energy source to fix CO2 and N2 into biomass. Therefore, in this experimental setup, electrochemical water splitting generated H2 as the biological energy source and in the same reactor X. autotrophicus acted as the room-temperature N2 reduction reaction catalyst to convert H2 and N2 into NH3.
The electrodes included a Co—P cathode for the hydrogen evolution reaction and a CoPi anode for the oxygen evolution reaction. A gas mixture including 2% O2, 20% CO2, and 78% N2 was bubbled through the solution at a flow rate of greater than or equal to 5 mL/min to maintain a micro-aerobic environment.
At the beginning of each experiment, X. autotrophicus was inoculated into the organic-free minimal medium without any nitrogen supplement. A constant driving voltage (Eappl=3.0 V) was applied to the CoPi|Co—P catalyst system, and aliquots were periodically sampled for the quantification of biomass (optical density at 600 nm, OD600) as well as fixed nitrogen (colorimetric assay).
The hybrid device is capable of excreting synthesized NH3 into an extracellular medium. Previous biochemical assays and genome sequencing on this strain indicate that the NH3 generated from nitrogenase is incorporated into biomass via a two-step process mediated by glutamine synthetase (GS) and glutamate synthase (GOGAT) (FIGS. 1 and 5). If the functionality of this NH3 assimilation pathway is disrupted, direct production of an extracellular NH3 fertilizer solution is realized. It has been reported that GS inhibitors can be used for NH3 secretion in sugar-fementating diazotrophs. As a proof of principle, glufosinate (PPT), a specific GS inhibitor commercially used as herbicide, was used to block the NH3 assimilation pathway and allow the synthesized NH3 to passively diffuse out into the extracellular medium (pathway 2 in FIG. 1, and FIG. 5). After the addition of PPT, the biomass of X. autotrophicus stagnated, while Ntotal and the concentration of free NH3 in the solution (NNH3) increased (FIG. 6). […]

[1] = end of experiments, after PPT addition, n=3

Row | SMILES | inhibition constant Kis(D2) (nitrogenase) [kPa] | biomass of X. autotrophicus after addition (X. autotrophicus; after the addition of PPT, FIG. 6) | concentration of free NH3 in the solution (NNH3) (X. autotrophicus; end of experiments, after PPT addition) [mM] | accumulated Ntotal (X. autotrophicus; [1]) [mg/L] | concentration of free NH3 in the solution (NNH3) (X. autotrophicus; [1]) [mg/L]
1 | [HH] [H2] | ~11 |  |  |  | 
2 | CP(=O)(O)CCC(N)C(=O)O (centres unmarked) [PPT, glufosinate] |  | stagnated | ~0.8 | 47 ± 3 | 11 ± 2
